Assay results as given in US6410012B1, “Antimicrobial mediated bacterial DNA delivery” (The United States of America as represented by the …, priority 1997, dated 2002).

What was measured:
BHK cells [1] = test: viable bacterial counts recovered from infected BHK cells; format: cell-based, baby hamster
Method: (§1) The protocol used for these experiments consisted of diluting an overnight culture of the bacteria 1 in 50 and allowing it to grow to midlog phase, approximately 2.5 hours. The midlog cultures were then concentrated in Hank's Balanced Salts by centrifugation to approximately 10^9 bacteria per milliliter and a small aliquot was taken to determine the midlog bacterial count. Two milliliters of bacteria were added to the appropriate semi-confluent flask of BHK cells and allowed to incubate for ninety minutes at 37° C. and 5% CO2. After the incubation, the cells were rinsed with Hank's Balanced Salts (Sigma). In most cases the flasks were treated with complete DMEM containing […] gentamicin to kill all extracellular bacteria. Either antibiotic was then added at the designated time.
Harvesting of cells was carried out as follows. At the appropriate time point media was removed from the flasks and the flasks were rinsed thoroughly with Hank's Balanced Salts followed by Edda Twiddy's EDTA. Flasks were then treated with 5 milliliters of Trypsin-EDTA for 5 minutes at 37° C. and 5% CO2 to lift the adherent mammalian cells from the flask. Ten milliliters of room temperature DMEM with serum was added to inactivate the Trypsin-EDTA. The cells were pelleted at 2000 rpm for 12 minutes at room temperature and resuspended in 10 milliliters of phosphate buffered saline (PBS). […]

BHK cells [2] = test: β-galactosidase activity in lysates of BHK cells infected with Shigella strains (plasmid DNA delivery); format: cell-based, baby hamster; conditions: for ability of the antimicrobial to mediate bacterial plasmid DNA delivery: attenuated Shigella flexneri not programmed to lyse, in BHK cells
Method: as §1
Harvesting of cells was carried out as follows. At the appropriate time point media was removed from the flasks and the flasks were rinsed thoroughly with Hank's Balanced Salts followed by Edda Twiddy's EDTA. Flasks were then treated with 5 milliliters of Trypsin-EDTA for 5 minutes at 37° C. and 5% CO2 to lift the adherent mammalian cells from the flask. Ten milliliters of room temperature DMEM with serum was added to inactivate the Trypsin-EDTA. The cells were pelleted at 2000 rpm for 12 minutes at room temperature and resuspended in 10 milliliters of phosphate buffered saline (PBS).
A 100 μl aliquot was taken and diluted in 0.1 % Triton X-100 and plated on diaminopimelic acid (DAP) supplemented congo red (Sigma) tryptic soy agar for 15D or TSA without DAP for SC602. The remainder was again pelleted and resuspended in 1.3 ml PM-2 buffer. 30 μl of 10% Triton X-100 was added and the sample was incubated at room temperature and vortexed frequently for ten minutes to lyse the BHK cells. The cellular debris was pelleted for […] at 13500×g and 4° C.
Four hundred microliters of the supernatant was combined with 400 μl of PM-2 buffer in a spectrophotometric cuvette and allowed to equilibrate to 37° C. 200 μl of ONPG reagent is then added to each sample and any applicable standards. The samples were incubated at 37° C. and timed until a vibrant yellow color appeared, at which point the reaction was complete. The absorbance of each sample was measured at 420 nm and recorded. β-galactosidase activity was calculated as Ab420×380/Time (minutes). To determine the total amount of protein present in each assayed sample 200 μl of cold (−20° C.) acetone was added to 50 μl of the above supernatants, vortexed thoroughly and stored at −20° C. for 30 minutes. The samples were then pelleted for 10 minutes at 14000 rpm and the supernatant was discarded. Samples were allowed to dry in a heated evacuating centrifuge and then resuspended in 50 μl dissociation buffer. The protein concentration was then determined using a standard BCA (Pierce) protein determination protocol. Results are reported as β-galactosidase activity per mg of protein.

Compound	effect on number of viable bacteria (BHK cells [1]; after the addition of azithromycin to infected BHK cells)	effect of time of addition on β-galactosidase activity (BHK cells [2]; addition 1 to 2 hours after adherence/invasion compared to just after, SC602(pCMVβ))	ability of the antimicrobial to mediate bacterial plasmid DNA delivery (BHK cells [2]; SC602(pCMVβ))	effect on delivery of plasmid DNA by 15D(pCMVβ) (BHK cells [2]; 15D(pCMVβ) infected monolayers treated just after the adherence/invasion step)	loss of viable bacteria (BHK cells [1]; 15D(pCMVβ) infected BHK cells, treatment right after to two hours after the adherence/invasion step) [log]	effect on β-galactosidase activity (BHK cells [2]; 15D(pCMVβ) infected BHK cells, treated at various times after the adherence/invasion step)
CC[C@H]1OC(=O)[C@H](C)[C@@H](O[C@H]2C[C@@](C)(OC)[C@@H](O)[C@H](C)O2)[C@H](C)[C@@H](O[C@@H]2O[C@H](C)C[C@H](N(C)C)[C@H]2O)[C@](C)(O)C[C@@H](C)CN(C)[C@H](C)[C@@H](O)[C@]1(C)O [azithromycin]	no dramatic decrease in the number of viable bacteria was detected	greatly increased the amount of β-galactosidase activity	capable of mediating bacterial-based plasmid DNA delivery	–	–	–
O=C(O)c1cn(C2CC2)c2cc(N3CCNCC3)c(F)cc2c1=O [ciprofloxacin]	–	–	unable to mediate DNA delivery	inhibited delivery of the plasmid DNA	–	–
C[C@@H]1C[C@@H]([C@H](O)CC2CC(=O)NC(=O)C2)C(=O)[C@@H](C)C1 [cyclohexamide]	–	–	–	–	1	inhibition of β-galactosidase activity
